Data on two compounds can be found in patent US20180148470A1, “CHOLIC ACID DERIVATIVE, AND PREPARATION METHOD AND MEDICAL USE THEREOF” (Jiangsu Hansoh Pharmaceutical Group Co., Ltd., priority 2015, published 2018).

pEC50: −log10 of the molar value.

One series addresses T1, FXR receptor (Homo sapiens, UniProt Q96RI1).
T1 construct: Prepared 2× GST-labeled FXR-LBD/anti-GST Eu mixture to the required volume, the concentration of GST-FXR-LBD was 6 nM; purchased Life Technology Invitrogen PV4835
T1 sequence (Q96RI1 262-486 limits assumed): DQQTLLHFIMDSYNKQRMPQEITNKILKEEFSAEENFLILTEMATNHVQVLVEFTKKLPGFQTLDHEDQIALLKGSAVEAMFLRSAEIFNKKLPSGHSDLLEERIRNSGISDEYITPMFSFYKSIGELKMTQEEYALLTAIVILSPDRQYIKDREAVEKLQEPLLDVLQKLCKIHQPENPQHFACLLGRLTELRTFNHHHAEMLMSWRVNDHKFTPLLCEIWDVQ
T1 sequence (Q15788 676-700 partner limits assumed): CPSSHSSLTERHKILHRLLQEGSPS
The experiment in a line: FXR receptor binding activity assay (TR-FRET; GST-FXR-LBD / SRC1 fragment). The series is classed as biochemical. Particulars: FXR-LBD binding to SRC1 fragment, agonist rate. The source says:
FXR Receptor Binding Activity Assay (Time-Resolved Fluorescence Detection Method TR-FRET Method)
To test the effect of the present compounds on FXR receptor binding, we selected the commercial FXR receptor binding activity assay kit to test the effect of the compounds on FXR and its binding protein fragments (LBD structural domain binds to SRC1 fragment) (kit supplier: Life Technology Invitrogen Catalog: PV4835; cisbio Catalog: 610SAXLA and 61GSTKLA). Specific method was described in the kit instructions. The operation was as follows:
1. Prepared 2× GST-labeled FXR-LBD/anti-GST Eu mixture to the required volume, the concentration of GST-FXR-LBD was 6 nM, Eu was 50 nL/well.
2. Prepared 2× biotin-labeled SRC1/[…] (SA-APC) mixture to the required volume, the concentration of SRC1 was 1000 nM, and […] was 50 nL/well.
3. 2× GST-FXR/Eu and SRC1/SA-APC were mixed in a proportion of 1:1.
4. 20 μL of a mixture of GST-FXR/Eu and SRC1/SA-APC was added to a 384-well plate containing the compounds to be tested.
5. Centrifuged for 1 minute at 1000 rpm; incubated for 180 minutes at room temperature.
6. Time-resolved fluorescence detection: EnVision reader.
(1) the value at 665 nm divided by the value at 615 nm;
(2) calculating the agonist rate
Agonist rate=(X−Min)/(Max−Min)*100% • X represents the 665/615 value for each concentration; • Min represents the 665/615 value without adding compound; • Max represents the 665/615 value of the reference compound.

The target of the next series is T2, FXR (Homo sapiens, UniProt Q96RI1).
T2 sequence (Q96RI1 262-486 limits assumed): T1 sequence (Q96RI1 262-486 limits assumed)
Nature of the series: FXR reporter gene expression test (dual luciferase, FXR Gal4 reporter in HepG2 cells). The series is classed as cell-based. As to conditions: HepG2 cells transiently transfected with FXR Gal4 reporter, 18 hours. The source says:
FXR Reporter Gene Expression Test
To analyze the effect of testing compounds on FXR-regulated gene expression, we used Promega's dual luciferase assay system (Promega #E1980) to detect the effect of the compounds on the FXR reporter gene in HepG2 hepatoma cell line (ATCC #HB-8065), which was transiently transfected with the FXR Gal4 reporter gene fragment. Specific experimental methods are as follows:
1. HepG2 Cell Culture and Maintenance
Cells were digested and cells with appropriate density were grown in 10 mL complete medium and then cultivated for 24 hours under 37° C., 5% CO2 humidity conditions.
2. Cell planting and transfection. Transfection reagent was Fugene HD (Promega#E231A)
(1) The transfection mixture was prepared according to the following table
(2) The mixture in the tube was vigorously mixed and incubated at room temperature for 15 minutes;
(3) The cells were digested in the culture dish and counted;
(4) The cell suspension was diluted to the desired volume of 600,000/mL (96-well plates 100 μL/well);
(5) The required volume of the transfection mixture was added to the cell suspension, followed by plating at 100 μL/well;
(6) Incubated for 24 hours under 37° C., 5% CO2 humidity conditions.
3. Treatment of the Compound
(1) 10 mM of mother liquor of the compound was prepared and then serially diluted 3 times with DMSO;
(2) 10 μL of compound was added to 90 μL of complete medium (10×);
(3) 5 μL of the solution of the compound (21×) was added to each well;
(4) Incubated for 18 hours under 37° C., 5% CO2 humidity conditions.
The firefly luciferase and the renilla luciferase signal (Promega #E1980) were detected by Promega's dual-luciferase assay system.
(2) Calculating the agonist rate
Agonist rate=(X−Min)/(Max−Min)*100% • X represents the F/R value of each concentration; • Min represents the F/R value without adding compound; • Max represents the F/R value of the reference compound.
(3) EC50 was calculated according to GraphPrism 5.0

Series [1] is described as follows: Pharmacokinetic test in rats. The series is classed as in vivo, Sprague-Dawley (SD) rats. As to conditions: male SD rats, intragastric administration of 10 mg/kg; for AUC(0-t) / Cmax / Tmax: Sprague-Dawley, rat, po, plasma; for AUC(0-t): read-out: area under the blood concentration-time curve AUC0-t; for Cmax: read-out: peak concentration Cmax; for Tmax: read-out: peak time of blood concentration tmax. As for the experimental part:
Pharmacokinetic Test in Rats
The pharmacokinetic study of the present invention was performed in rats. The pharmacokinetic behavior of the positive control INT-747 and a representative compound of the present invention, such as Example 14-β, was studied in rats, and their pharmacokinetic characteristics were evaluated.
(1) Three male Sprague-Dawley (SD) rats were used, which were supplied by Sippr-BK laboratory animal Co. Ltd. Animal Production License No. SOCK (Shanghai) 2008-0016.
(2) Then, 10 mg of the sample was weighed and added with 10 mL of 0.5% CMC-Na aqueous solution, the mixture was fully shaken to make a 1 mg/ml uniform solution, and the remaining liquid samples were used for quantitative analysis.
(3) Three male SD rats were intragastrically administered at 10 mg/kg with a volume of 10 mL/kg after fasting for one night.
(4) About 0.05 mL of underjaw intravenous blood was collected before and 0.5, 1.0, 2.0, 4.0, 6.0, 8.0, 24.0, 30.0 hours after administration, and then placed in a EDTA-K2 test tube. The blood was centrifuged at 6000 rpm for 5 minutes to isolate the plasma, which was stored at −80° C. The rats were feed 4 hours after administration.
(1) Instruments and Equipment: API 4000 triple quadrupole mass spectrometer, Applied Biosystems, USA; Shimadzu LC-20AD high performance liquid chromatography system, Shimadzu, Japan.
(2) Condition of chromatography: The chromatographic column was Phenomenex gemiu 5 um C18 50×4.6 mm; mobile phase was acetonitrile: 0.1% TFA aqueous solution (gradient elution); flow rate (ml/min) was 0.8 ml/min.

Compound `CC[C@H]1[C@@H](O)C2C3CCC([C@H](C)CC4SC(=O)NC4=O)[C@@]3(C)CCC2[C@@]2(C)CC[C@@H](O)C[C@@H]12` (single isomer, unassigned) [Example 14-β] showed a pEC50 on FXR receptor of 8.40. The same compound gave a pEC50 on FXR of 7.24. For the same compound, in series [1], the AUC(0-t) stood at 41800 ng·h/mL, the Cmax amounted to 7580 ng/mL, the Tmax came out at 60 min and the “exposed quantity in the tested animals compared with positive control INT-747” value is recorded as “significantly better than that of the positive control INT-747”.

As to `CC[C@H]1[C@@H](O)[C@@H]2[C@H](CC[C@]3(C)[C@@H]([C@H](C)CCC(=O)O)CC[C@@H]23)[C@@]2(C)CC[C@@H](O)C[C@@H]12` [INT-747, reference compound], in series [1], the AUC(0-t) was determined as 9030 ng·h/mL, the Cmax worked out at 4410 ng/mL and the Tmax was 30 min.
